From patent US20230095520A1, “PHARMACEUTICAL COMPOSITION FOR PREVENTING OR TREATING CANCER COMPRISING AZOLE DERIVATIVES OR PHARMACEUTICALLY ACCEPTABLE SALT THEREOF” (Yungjin Pharm. Co., Ltd., priority 2020, published 2023)

molecular target: T1, Recombinant purified human CDK7 (Homo sapiens, UniProt P50613); test: CDK7 activity inhibition, ADP-Glo kinase assay; type: biochemical; conditions: ATP 90 μM, MBP substrate, 2 hours 30° C.
T1 construct: purchased ThermoFisher PV3868
Description: Recombinant purified human CDK7 (ThermoFisher, PV3868) and ADP Glo Kinase Assay Kit (Promega, V9102) were used. CDK7 was diluted with 1× kinase reaction buffer (40 mM Tris-Cl, pH 7.5, 20 mM MgCl2, 0.1 mg/ml BSA and 50 μM DTT) and added to a 96 well plate (CDK7 final concentration per reaction: 50 ng). It was finally treated with the compound of the present invention to a 1% DMSO aqueous solution, and a substrate cocktail containing ATP (final concentration of 90 μM) and 0.2 μg/μl MBP (myelin basic protein) in a total of 25 μl reaction mass was added to a 96 well plate, thereby initiating the enzymatic reaction. After 2 hours of incubation (30° C.), an equal volume (25 μl per reaction) of ADP Glo was added and incubated at room temperature for 60 minutes (30° C.). Thereafter, kinase detection reagent (50 μl per reaction) was added and incubated at room temperature for 30 minutes (30° C.). The kinase activity was measured by the chemiluminescence method according to the ADP Glo Kinase Assay Kit instruction manual, and the CDK7 inhibitory activity of the compounds of the present invention was calculated.

T1 sequence (P50613 whole entry): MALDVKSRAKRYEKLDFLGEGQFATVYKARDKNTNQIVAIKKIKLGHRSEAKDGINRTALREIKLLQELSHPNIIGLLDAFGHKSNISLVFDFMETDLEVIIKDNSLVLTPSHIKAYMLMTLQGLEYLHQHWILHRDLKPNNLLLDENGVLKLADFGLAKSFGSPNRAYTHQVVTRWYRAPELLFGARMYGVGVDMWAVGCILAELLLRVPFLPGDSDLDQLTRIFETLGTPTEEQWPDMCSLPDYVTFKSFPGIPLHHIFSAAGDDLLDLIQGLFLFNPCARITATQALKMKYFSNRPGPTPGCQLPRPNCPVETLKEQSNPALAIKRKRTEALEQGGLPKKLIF
T1 sequence (P51946 whole entry partner): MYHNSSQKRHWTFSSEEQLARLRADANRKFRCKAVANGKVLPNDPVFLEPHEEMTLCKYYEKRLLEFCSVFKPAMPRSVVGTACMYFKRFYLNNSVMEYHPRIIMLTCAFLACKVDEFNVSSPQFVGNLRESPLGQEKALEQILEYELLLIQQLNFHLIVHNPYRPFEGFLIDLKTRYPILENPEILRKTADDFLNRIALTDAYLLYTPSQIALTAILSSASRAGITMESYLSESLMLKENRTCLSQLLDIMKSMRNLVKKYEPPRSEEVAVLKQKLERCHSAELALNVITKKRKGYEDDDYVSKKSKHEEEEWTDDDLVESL
T1 sequence (P51948 whole entry partner): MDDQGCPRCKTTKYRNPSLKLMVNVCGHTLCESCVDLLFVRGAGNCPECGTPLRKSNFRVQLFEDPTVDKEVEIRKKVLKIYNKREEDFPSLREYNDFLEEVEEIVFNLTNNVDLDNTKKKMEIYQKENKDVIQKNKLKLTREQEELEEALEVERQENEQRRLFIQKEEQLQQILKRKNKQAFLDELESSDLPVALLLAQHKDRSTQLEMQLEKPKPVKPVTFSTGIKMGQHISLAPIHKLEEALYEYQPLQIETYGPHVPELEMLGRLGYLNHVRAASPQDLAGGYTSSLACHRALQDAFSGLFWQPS

IC50	SMILES
35 nM	CC(C(=O)Nc1ncc(C2CC2)s1)c1cccc(-c2ccc(NC(=O)/C=C/CN(C)C)nc2)c1 (stereo not drawn) [Compound 6, (E)-N-(5-(3-(1-((5-cyclopropylthiazol-2-yl)amino)-1-oxopropan-2-yl)phenyl)pyridin-2-yl)-4-(dimethylamino)but-2-enamide]
92 nM	C=CC(=O)Nc1ccc(-c2csc(C(C)C(=O)Nc3ncc(Cl)s3)c2)cn1 (stereo not drawn) [Compound 76, N-(5-(5-(1-((5-chlorothiazol-2-yl)amino)-1-oxopropan-2-yl)thiophen-3-yl)pyridin-2-yl)acrylamide]
68 nM	C=CC(=O)Nc1cc(F)c(-c2cncc(C(C)C(=O)Nc3ncc(C(F)(F)F)s3)c2)cn1 (stereo not drawn) [Compound 84, N-(4-fluoro-5′-(1-oxo-1-((5-(trifluoromethyl)thiazol-2-yl)amino)propan-2-yl)-[3,3′-bipyridin]-6-yl)acrylamide]
16 nM	C=CC(=O)Nc1ncc(-c2cncc(C(C)C(=O)Nc3ncc(C(F)(F)F)s3)c2)cc1C#N (stereo not drawn) [Compound 88, N-(5-cyano-5′-(1-oxo-1-((5-(trifluoromethyl)thiazol-2-yl)amino)propan-2-yl)-[3,3′-bipyridin]-6-yl)acrylamide]
42 nM	C[C@H](C(=O)Nc1ncc(C(F)(F)F)s1)c1cccc(-c2cnc(NC(=O)/C=C/CN3CCOCC3)cn2)c1 [Compound 92, (S,E)-4-morpholino-N-(5-(3-(1-oxo-1-((5-(trifluoromethyl)thiazol-2-yl)amino)propan-2-yl)phenyl)pyrazin-2-yl)but-2-enamide]
93 nM	C[C@H](C(=O)Nc1ncc(Cl)s1)c1cccc(-c2cnc(NC(=O)/C=C/CN(C)C)cn2)c1 [Compound 93, (S,E)-N-(5-(3-(1-((5-chlorothiazol-2-yl)amino)-1-oxopropan-2-yl)phenyl)pyrazin-2-yl)-4-(dimethylamino)but-2-enamide]
14.5 nM	C[C@H](C(=O)Nc1ncc(Cl)s1)c1cccc(-c2cnc(NC(=O)/C=C/CN3CC4CC3CO4)cn2)c1 (stereo partly drawn) [Compound 94, (E)-4-(2-oxa-5-azabicyclo[2.2.1]heptan-5-yl)-N-(5-(3-((S)-1-((5-chlorothiazol-2-yl)amino)-1-oxopropan-2-yl)phenyl)pyrazin-2-yl)but-2-enamide]
80.4 nM	C[C@H](C(=O)Nc1ncc(C(F)(F)F)s1)c1cccc(-c2cnc(NC(=O)/C=C/CN3CCN(C)CC3)cn2)c1 [Compound 95, (S,E)-4-(4-methylpiperazin-1-yl)-N-(5-(3-(1-oxo-1-((5-(trifluoromethyl)thiazol-2-yl)amino)propan-2-yl)phenyl)pyrazin-2-yl)but-2-enamide]
87 nM	C[C@H](C(=O)Nc1ncc(Cl)s1)c1cccc(-c2cnc(NC(=O)/C=C/CN3CCOCC3)cn2)c1 [Compound 98, (S,E)-N-(5-(3-(1-((5-chlorothiazol-2-yl)amino)-1-oxopropan-2-yl)phenyl)pyrazin-2-yl)-4-morpholinobut-2-enamide]
9.8 nM	COc1cc(-c2cccc([C@H](C)C(=O)Nc3ncc(C(F)(F)F)s3)c2)cnc1NC(=O)/C=C/CN(C)C [Compound 100, (S,E)-4-(dimethylamino)-N-(3-methoxy-5-(3-(1-oxo-1-((5-(trifluoromethyl)thiazol-2-yl)amino)propan-2-yl)phenyl)pyridin-2-yl)but-2-enamide]
13 nM	C[C@H](C(=O)Nc1ncc(C(F)(F)F)s1)c1cccc(-c2cnc(NC(=O)/C=C/CN3CCCC3)cn2)c1 [Compound 102, (S,E)-N-(5-(3-(1-oxo-1-((5-(trifluoromethyl)thiazol-2-yl)amino)propan-2-yl)phenyl)pyrazin-2-yl)-4-(pyrrolidin-1-yl)but-2-enamide]
13 nM	C[C@H](C(=O)Nc1ncc(C(F)(F)F)s1)c1cccc(-c2cnc(NC(=O)/C=C/CN3CCC3)cn2)c1 [Compound 103, (S,E)-4-(azetidin-1-yl)-N-(5-(3-(1-oxo-1-((5-(trifluoromethyl)thiazol-2-yl)amino)propan-2-yl)phenyl)pyrazin-2-yl)but-2-enamide]
71 nM	C[C@H](C(=O)Nc1ncc(N(C)C)s1)c1cccc(-c2cnc(NC(=O)/C=C/CN(C)C)cn2)c1 [Compound 106, (S,E)-4-(dimethylamino)-N-(5-(3-(1-((5-(dimethylamino)thiazol-2-yl)amino)oxopropan-2-yl)phenyl)pyrazin-2-yl)but-2-enamide]
31 nM	CC(C(=O)Nc1ncc(C(F)(F)F)s1)c1cncc(-c2ccc(NC(=O)/C=C/CN(C)C)nc2)c1 (stereo not drawn) [Compound 107, (E)-4-(dimethylamino)-N-(5′-(1-oxo-1-((5-(trifluoromethyl)thiazol-2-yl)amino)propan-2-yl)-[3,3′-bipyridin]-6-yl)but-2-enamide]
8.2 nM	COc1nc(-c2cccc([C@H](C)C(=O)Nc3ncc(C(F)(F)F)s3)c2)cnc1NC(=O)/C=C/CN(C)C [Compound 109, (S,E)-4-(dimethylamino)-N-(3-methoxy-5-(3-(1-oxo-1-((5-(trifluoromethyl)thiazol-2-yl)amino)propan-2-yl)phenyl)pyrazin-2-yl)but-2-enamide]
5.9 nM	C[C@H](C(=O)Nc1ncc(C(F)(F)F)s1)c1cccc(-c2cnc3c(c2)CCN3C(=O)/C=C/CN(C)C)c1 [Compound 110, (S,E)-2-(3-(1-(4-(dimethylamino)but-2-enoyl)-2,3-dihydro-1H-pyrrolo[2,3-b]pyridin-5-yl)phenyl)-N-(5-(trifluoromethyl)thiazol-2-yl)propanamide]
9.5 nM	C[C@H](C(=O)Nc1ncc(C(F)(F)F)s1)c1cccc(-c2cnc(NC(=O)/C=C/CN(C)C)c(C(F)(F)F)c2)c1 [Compound 111, (S,E)-4-(dimethylamino)-N-(5-(3-(1-oxo-1-((5-(trifluoromethyl)thiazol-2-yl)amino)propan-2-yl)phenyl)-3-(trifluoromethyl)pyridin-2-yl)but-2-enamide]
17 nM	Cc1cc(-c2cccc([C@H](C)C(=O)Nc3ncc(C(F)(F)F)s3)c2)cnc1NC(=O)/C=C/CN(C)C [Compound 112, (S,E)-4-(dimethylamino)-N-(3-methyl-5-(3-(1-oxo-1-((5-(trifluoromethyl)thiazol-2-yl)amino)propan-2-yl)phenyl)pyridin-2-yl)but-2-enamide]
8.5 nM	C[C@H](C(=O)Nc1ncc(C(F)(F)F)s1)c1cccc(-c2cnc(NC(=O)/C=C/CN(C)C)c(Cl)c2)c1 [Compound 113, (S,E)-N-(3-chloro-5-(3-(1-oxo-1-((5-(trifluoromethyl)thiazol-2-yl)amino)propan-2-yl)phenyl)pyridin-2-yl)-4-(dimethylamino)but-2-enamide]
12 nM	CCN(CC)C/C=C/C(=O)Nc1cnc(-c2cccc([C@H](C)C(=O)Nc3ncc(C(F)(F)F)s3)c2)cn1 [Compound 114, (S,E)-4-(diethylamino)-N-(5-(3-(1-oxo-1-((5-(trifluoromethyl)thiazol-2-yl)amino)propan-2-yl)phenyl)pyrazin-2-yl)but-2-enamide]
13.5 nM	C[C@H](C(=O)Nc1ncc(C(F)(F)F)s1)c1cccc(-c2ccc(NC(=O)/C=C/CN(C)C)nc2)c1 [Compound 116, (S,E)-4-(dimethylamino)-N-(5-(3-(1-oxo-1-((5-(trifluoromethyl)thiazol-2-yl)amino)propan-2-yl)phenyl)pyridin-2-yl)but-2-enamide]
15.4 nM	C[C@H](C(=O)Nc1ncc(C(F)(F)F)s1)c1cccc(-c2cnc(NC(=O)/C=C/CN3CC[C@H](F)C3)cn2)c1 [Compound 117, (E)-4-((S)-3-fluoropyrrolidin-1-yl)-N-(5-(3-((S)-1-oxo-1-((5-(trifluoromethyl)thiazol-2-yl)amino)propan-2-yl)phenyl)pyrazin-2-yl)but-2-enamide]
20 nM	COC[C@@H]1CCCN1C/C=C/C(=O)Nc1cnc(-c2cccc([C@H](C)C(=O)Nc3ncc(C(F)(F)F)s3)c2)cn1 [Compound 118, (E)-4-((S)-2-(methoxymethyl)pyrrolidin-1-yl)-N-(5-(3-((S)-1-oxo-1-((5-(trifluoromethyl)thiazol-2-yl)amino)propan-2-yl)phenyl)pyrazin-2-yl)but-2-enamide]
16 nM	C[C@H](C(=O)Nc1ncc(C(F)(F)F)s1)c1cccc(-c2cnc(NC(=O)/C=C/CN3CCCCC3)cn2)c1 [Compound 120, (S,E)-N-(5-(3-(1-oxo-1-((5-(trifluoromethyl)thiazol-2-yl)amino)propan-2-yl)phenyl)pyrazin-2-yl)-4-(piperidin-1-yl)but-2-enamide]
6 nM	CCc1cnc(NC(=O)[C@@H](C)c2cccc(-c3cnc4c(c3)CCN4C(=O)/C=C/CN(C)C)c2)s1 [Compound 122, (S,E)-2-(3-(1-(4-(dimethylamino)but-2-enoyl)-2,3-dihydro-1H-pyrrolo[2,3-b]pyridin-5-yl)phenyl)-N-(5-ethylthiazol-2-yl)propanamide]
5.3 nM	CCc1cnc(NC(=O)[C@@H](C)c2cccc(-c3cnc(NC(=O)/C=C/CN4CC5CC4CO5)c(C#N)c3)c2)s1 (stereo partly drawn) [Compound 123, (E)-4-(2-oxa-5-azabicyclo[2.2.1]heptan-5-yl)-N-(3-cyano-5-(3-((S)-1-((5-ethylthiazol-2-yl)amino)-1-oxopropan-2-yl)phenyl)pyridin-2-yl)but-2-enamide]
4.5 nM	C=CC(=O)Nc1ncc(-c2cccc([C@H](C)C(=O)Nc3ncc(C(F)(F)F)s3)c2)cc1C#N [Compound 124, (S)-N-(3-cyano-5-(3-(1-oxo-1-((5-(trifluoromethyl)thiazol-2-yl)amino)propan-2-yl)phenyl)pyridin-2-yl)acrylamide]
